Reference: PubChem BioAssay AID2060893 (Molecular Pharmacology Branch, DTP, NCI, 2025)
pIC50: −log10 of the molar value.

Tested on: K86415-001-R-J1-PDC complex spheroids, viability
Assay: Anticancer human tumor K86415-001-R-J1-PDC patient-derived lung adenocarcinoma cell line growth inhibition [RAS]
Conditions: for pIC50: curve of first compound; for viability, T/C: stronger effect = lower value
In short: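 Multi-cell-type spheroids: tumor cells plus HUVEC endothelial cells and mesenchymal stem cells. RAS-pathway inhibitors were combined with targeted agents, each dosed in half-log steps down from clinical Cmax, or from 10 microM when Cmax was unknown.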

[1] = second compound 0.00316 µM, first compound 0.000949 µM
[2] = second compound 0.00316 µM, first compound 0.003 µM
[3] = second compound 0.00316 µM, first compound 0.00949 µM
[4] = second compound 0.00316 µM, first compound 0.03 µM
[5] = second compound 0.00316 µM, first compound 0.0949 µM
[6] = second compound 0.00316 µM, first compound 0.3 µM
[7] = second compound 0.01 µM, first compound 0.000949 µM
[8] = second compound 0.01 µM, first compound 0.003 µM
[9] = second compound 0.01 µM, first compound 0.00949 µM
[10] = second compound 0.01 µM, first compound 0.03 µM
[11] = second compound 0.01 µM, first compound 0.0949 µM
[12] = second compound 0.01 µM, first compound 0.3 µM
[13] = second compound 0.0316 µM, first compound 0.000949 µM
[14] = second compound 0.0316 µM, first compound 0.003 µM
[15] = second compound 0.0316 µM, first compound 0.00949 µM
[16] = second compound 0.0316 µM, first compound 0.03 µM
[17] = second compound 0.0316 µM, first compound 0.0949 µM
[18] = second compound 0.0316 µM, first compound 0.3 µM
[19] = second compound 0.1 µM, first compound 0.000949 µM
[20] = second compound 0.1 µM, first compound 0.003 µM
[21] = second compound 0.1 µM, first compound 0.00949 µM
[22] = second compound 0.1 µM, first compound 0.03 µM
[23] = second compound 0.1 µM, first compound 0.0949 µM
[24] = second compound 0.1 µM, first compound 0.3 µM
[25] = second compound 0.316 µM, first compound 0.000949 µM
[26] = second compound 0.316 µM, first compound 0.003 µM
[27] = second compound 0.316 µM, first compound 0.00949 µM
[28] = second compound 0.316 µM, first compound 0.03 µM
[29] = second compound 0.316 µM, first compound 0.0949 µM
[30] = second compound 0.316 µM, first compound 0.3 µM
[31] = second compound 1 µM, first compound 0.000949 µM
[32] = second compound 1 µM, first compound 0.003 µM
[33] = second compound 1 µM, first compound 0.00949 µM
[34] = second compound 1 µM, first compound 0.03 µM
[35] = second compound 1 µM, first compound 0.0949 µM
[36] = second compound 1 µM, first compound 0.3 µM
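Note: spheroids exposed to agents for seven days before readout.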

## CC1(C)CCC(Nc2ncc(C(F)(F)F)c(-c3c[nH]c4c(P(C)(C)=O)c(C#N)ccc34)n2)CN1 (centres undefined) + C=CC(=O)N1CCN(c2nc(OCC3CCCN3C)nc3c(F)c(-c4nc(N)cc(C)c4C(F)(F)F)c(Cl)cc23)C(C)C1
Second compound 0.00316 µM
  pIC50: > 9.02
Second compound 0.01 µM
  pIC50: > 9.02
Second compound 0.0316 µM
  pIC50: > 9.02
Second compound 0.1 µM
  pIC50: > 9.02
Second compound 0.316 µM
  pIC50: > 9.02
Second compound 1 µM
  pIC50: > 9.02
[1]
  viability, T/C: 18.3%
[2]
  viability, T/C: 22.2%
[3]
  viability, T/C: 18.7%
[4]
  viability, T/C: 20.3%
[5]
  viability, T/C: 22.7%
[6]
  viability, T/C: 22.8%
[7]
  viability, T/C: 15.2%
[8]
  viability, T/C: 12.7%
[9]
  viability, T/C: 16.9%
[10]
  viability, T/C: 13.3%
[11]
  viability, T/C: 15.5%
[12]
  viability, T/C: 20.2%
[13]
  viability, T/C: 12.8%
[14]
  viability, T/C: 14%
[15]
  viability, T/C: 12.7%
[16]
  viability, T/C: 14.5%
[17]
  viability, T/C: 15.6%
[18]
  viability, T/C: 16.5%
[19]
  viability, T/C: 11.2%
[20]
  viability, T/C: 12.5%
[21]
  viability, T/C: 12.7%
[22]
  viability, T/C: 13.1%
[23]
  viability, T/C: 13.9%
[24]
  viability, T/C: 14.9%
[25]
  viability, T/C: 9.63%
[26]
  viability, T/C: 13.1%
[27]
  viability, T/C: 12.1%
[28]
  viability, T/C: 12.8%
[29]
  viability, T/C: 13.8%
[30]
  viability, T/C: 13.4%
[31]
  viability, T/C: 10.9%
[32]
  viability, T/C: 11.1%
[33]
  viability, T/C: 13.6%
[34]
  viability, T/C: 13.8%
[35]
  viability, T/C: 15.9%
[36]
  viability, T/C: 14.9%

## CCc1c2c(nc3ccc(O)cc13)-c1cc3c(c(=O)n1C2)COC(=O)[C@]3(O)CC + C=CC(=O)N1CCN(c2nc(OCC3CCCN3C)nc3c(F)c(-c4nc(N)cc(C)c4C(F)(F)F)c(Cl)cc23)C(C)C1
Second compound 0.00316 µM
  pIC50: > 9.02
Second compound 0.01 µM
  pIC50: > 9.02
Second compound 0.0316 µM
  pIC50: > 9.02
Second compound 0.1 µM
  pIC50: > 9.02
Second compound 0.316 µM
  pIC50: > 9.02
Second compound 1 µM
  pIC50: > 9.02
[1]
  viability, T/C: 19.9%
[2]
  viability, T/C: 18.5%
[3]
  viability, T/C: 14.5%
[4]
  viability, T/C: 13.7%
[5]
  viability, T/C: 8.97%
[6]
  viability, T/C: 4.41%
[7]
  viability, T/C: 11.6%
[8]
  viability, T/C: 10.7%
[9]
  viability, T/C: 11.3%
[10]
  viability, T/C: 9.32%
[11]
  viability, T/C: 8.86%
[12]
  viability, T/C: 4.64%
[13]
  viability, T/C: 10.1%
[14]
  viability, T/C: 9.35%
[15]
  viability, T/C: 8.29%
[16]
  viability, T/C: 8.73%
[17]
  viability, T/C: 8.33%
[18]
  viability, T/C: 4.32%
[19]
  viability, T/C: 8.25%
[20]
  viability, T/C: 9.14%
[21]
  viability, T/C: 10.9%
[22]
  viability, T/C: 7.98%
[23]
  viability, T/C: 6.67%
[24]
  viability, T/C: 3.89%
[25]
  viability, T/C: 10%
[26]
  viability, T/C: 9.61%
[27]
  viability, T/C: 9.94%
[28]
  viability, T/C: 10.7%
[29]
  viability, T/C: 7.22%
[30]
  viability, T/C: 4.36%
[31]
  viability, T/C: 9.61%
[32]
  viability, T/C: 11%
[33]
  viability, T/C: 8.27%
[34]
  viability, T/C: 8.66%
[35]
  viability, T/C: 6.75%
[36]
  viability, T/C: 2.88%
